We go through six compounds from ChEMBL document CHEMBL1777770, “Design, synthesis, inhibitory activity, and binding mode study of novel DNA methyltransferase 1 inhibitors” (Bioorg Med Chem Lett, 2010).

Each structure is given as a SMILES string. Activity calls are given as the source filed them. The calls are words filed in the database; no cut-off is given here.

The target of assay [1] is DNA (cytosine-5)-methyltransferase 1 (Homo sapiens) (UniProt P26358). Nature of the assay: Inhibition of human DNA methyltransferase using S-adenosyl-L-methionine substrate at 10 uM measured after 60 mins.
For assay [2] the target is unchanged. Nature of the assay: Inhibition of human DNA methyltransferase using S-adenosyl-L-methionine substrate at 10 to 1000 uM measured after 60 mins.
For assay [3] the target is unchanged. The assay can be described thus: Inhibition of human DNA methyltransferase using S-adenosyl-L-methionine substrate at 1000 uM measured after 60 mins.

DNA (cytosine-5)-methyltransferase 1 (Homo sapiens), sequence (P26358 whole entry): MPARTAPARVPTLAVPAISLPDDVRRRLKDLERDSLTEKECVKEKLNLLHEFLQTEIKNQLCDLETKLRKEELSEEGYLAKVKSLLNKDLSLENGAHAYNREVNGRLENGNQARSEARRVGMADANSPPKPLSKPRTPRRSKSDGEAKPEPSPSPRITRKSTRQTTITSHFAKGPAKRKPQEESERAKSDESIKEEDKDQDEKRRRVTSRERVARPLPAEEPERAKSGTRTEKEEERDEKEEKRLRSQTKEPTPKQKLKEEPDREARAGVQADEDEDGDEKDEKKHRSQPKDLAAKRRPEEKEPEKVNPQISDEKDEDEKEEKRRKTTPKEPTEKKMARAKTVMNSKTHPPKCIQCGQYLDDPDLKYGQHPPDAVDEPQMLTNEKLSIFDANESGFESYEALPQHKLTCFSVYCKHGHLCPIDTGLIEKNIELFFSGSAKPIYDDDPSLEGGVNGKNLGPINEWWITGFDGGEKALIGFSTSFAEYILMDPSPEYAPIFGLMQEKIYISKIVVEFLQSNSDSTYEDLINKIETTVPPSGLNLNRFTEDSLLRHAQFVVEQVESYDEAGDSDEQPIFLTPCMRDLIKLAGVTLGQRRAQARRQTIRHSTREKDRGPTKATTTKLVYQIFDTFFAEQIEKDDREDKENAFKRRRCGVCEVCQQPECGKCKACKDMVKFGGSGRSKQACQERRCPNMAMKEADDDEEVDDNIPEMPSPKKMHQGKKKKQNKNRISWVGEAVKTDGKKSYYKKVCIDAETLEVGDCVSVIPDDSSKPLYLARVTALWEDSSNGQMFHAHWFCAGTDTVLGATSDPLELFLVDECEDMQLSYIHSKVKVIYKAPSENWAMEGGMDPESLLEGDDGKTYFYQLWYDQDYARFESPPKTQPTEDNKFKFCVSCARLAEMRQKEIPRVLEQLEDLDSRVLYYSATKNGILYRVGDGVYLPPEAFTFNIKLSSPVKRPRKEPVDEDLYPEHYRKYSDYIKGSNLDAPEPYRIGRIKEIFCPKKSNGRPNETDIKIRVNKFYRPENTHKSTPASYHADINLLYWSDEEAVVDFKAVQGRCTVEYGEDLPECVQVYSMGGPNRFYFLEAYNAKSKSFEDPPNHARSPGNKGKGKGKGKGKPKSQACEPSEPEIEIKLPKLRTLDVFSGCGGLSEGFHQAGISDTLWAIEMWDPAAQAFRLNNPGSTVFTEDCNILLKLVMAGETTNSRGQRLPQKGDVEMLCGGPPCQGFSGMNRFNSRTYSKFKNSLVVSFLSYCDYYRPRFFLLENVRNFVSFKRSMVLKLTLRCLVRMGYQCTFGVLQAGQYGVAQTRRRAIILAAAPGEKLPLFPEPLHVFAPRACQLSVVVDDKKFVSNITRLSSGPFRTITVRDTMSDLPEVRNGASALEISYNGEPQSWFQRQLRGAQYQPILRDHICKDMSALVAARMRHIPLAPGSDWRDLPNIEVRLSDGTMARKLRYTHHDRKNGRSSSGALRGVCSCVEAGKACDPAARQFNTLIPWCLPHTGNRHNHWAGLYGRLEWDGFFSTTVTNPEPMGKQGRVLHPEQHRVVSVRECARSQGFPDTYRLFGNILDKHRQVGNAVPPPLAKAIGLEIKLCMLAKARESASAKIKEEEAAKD

As for `O=C(O)[C@H](Cc1c[nH]c2ccccc12)N1C(=O)C=CC1=O`, the inhibition (as a rule, the change of the read-out against control, counted positive when it falls) in assay [1] is 60%. For the same compound, in assay [2], the inhibition result was “Active”.
In the case of `CC1=C(C)C(=O)N([C@@H](Cc2c[nH]c3ccccc23)C(=O)O)C1=O`, in assay [2], the inhibition entry is “Active”.
In the case of `O=C(O)[C@H](Cc1c[nH]c2ccccc12)N1C(=O)C=C(c2ccccc2)C1=O`, the inhibition entry in assay [2] was “Active”.
In assay [3], `O=C(O)[C@H](Cc1c[nH]c2ccccc12)N1C(=O)c2ccccc2C1=O` registered an inhibition of 34%.
`CC1=CC(=O)N([C@@H](Cc2c[nH]c3ccccc23)C(=O)O)C1=O`: the inhibition entry in assay [2] was “Active”.
The same measure, in the same setting: the result for `O=C(O)[C@H](Cc1c[nH]c2ccccc12)N1C(=O)CCC1=O` reads “inactive”.
